The values below are quoted from earlier work in paper PMC8198792, “Prediction of Anticancer Peptides with High Efficacy and Low Toxicity by Hybrid Model Based on 3D Structure of Peptides” (International Journal of Molecular Sciences, 2021).

For one data set, the system named is erythrocytes. Conditions: Hemolytic peptides dataset HD2; label 1 = hemolytic, 0 = non-hemolytic; ref Hemolytik/SATPdb; cited from earlier work. The source says: Supplement ijms-22-05630-s001.zip/Hemloytic Peptides(seguence).xlsx, sheet "HD1" | column: Activity || Supplement ijms-22-05630-s001.zip/Hemloytic Peptides(seguence).xlsx, sheet "HD2" | column: Activity || Supplement ijms-22-05630-s001.zip/Hemloytic Peptides(seguence).xlsx, sheet "HD3" | column: Activity
With KKlFKKILkYL [satpdb19353], the Activity is listed as 0. Take KLLLK [compound 3825]: the Activity was 1. On to KWKFKKIPKFLHLAKKF [satpdb23702], for which the Activity is 0.

For KWKLFKKIPKFLHLAK [satpdb17849], the Activity is listed as 0.

Take KWKLFKKIPKFLHLAKKF [compound 2405]: the Activity was 0. In the case of “KWKSFLKTFKSlKKTVLHTlLKAISS [satpdb12638]”, the Activity is 1. On to VKLKVyPLKVKlyP [satpdb11392], for which the Activity is 1.

Staying with this data set, now noted: cited from earlier work.
KKLKKLKKKWKKLKKKLK [satpdb24596]: the Activity is on record as 0 and the “Activity (dataset HD1, hemolytic 1 / non-hemolytic 0)” value was 0. Turning to KKLKKLLKKWKKLLKKLK [satpdb24868], the Activity is 0 and the “Activity (dataset HD1, hemolytic 1 / non-hemolytic 0)” value is given as 0. Turning to KKLLPIVANLLKSLL [satpdb19176], the Activity is 0 and the “Activity (dataset HD1, hemolytic 1 / non-hemolytic 0)” value was 0. For KKVVFKVKFK [satpdb13312], the Activity was 0. With KKWLKKWLK [satpdb18253], the Activity is reported as 0. As for KLLKKPLKLKL [satpdb17171], the Activity is listed as 0.

As for KLLKLLLKLLKLLLKLLLKLLK [compound 3828], the Activity was 1. On to KLLKLLLKLLLKLLK [compound 3689], for which the Activity is 1. KLLLKLLKLLLKLLLKLLK [compound 3687]: the Activity is recorded as 1. For KLLLKLLLK [compound 3826], the Activity is 1. On to KNLRRITRKIIHIIKKYG [satpdb15247], for which the Activity is given as 1 and the “Activity (dataset HD1, hemolytic 1 / non-hemolytic 0)” value is given as 1. For the substance KPLLKKLLKKL [satpdb28330], the Activity is recorded as 0. As for KRFKQDGGWSHWSPWSS [satpdb23837], the Activity is 0 and the “Activity (dataset HD1, hemolytic 1 / non-hemolytic 0)” value is listed as 0.

Consider KRLFKKLLFSLRKY [satpdb21867], for which the Activity is reported as 0 and the “Activity (dataset HD1, hemolytic 1 / non-hemolytic 0)” value is 0. As to KRLFRRLLFSMKKY [satpdb20261], the Activity was 0 and the “Activity (dataset HD1, hemolytic 1 / non-hemolytic 0)” value is 0.

Take KRLFRRWQWRMKKY [satpdb17153]: the Activity is on record as 0 and the “Activity (dataset HD1, hemolytic 1 / non-hemolytic 0)” value is 0. On to KSLRRVWRSWR [satpdb26460], for which the Activity is 0.

Regarding KSLVRRWRSRW [satpdb18185], the Activity is 0. As to KVAKQEKKKKKTGRAKRR [satpdb15637], the Activity was 1 and the “Activity (dataset HD1, hemolytic 1 / non-hemolytic 0)” value is recorded as 1.

For the substance KWKKLLKKPLKLKL [satpdb22005], the Activity is 0.

As for KWKKLLKKPLLKKLLKKL [satpdb12329], the Activity was 0. With KWKKLPKKLLKLL [satpdb21914], the Activity is reported as 0.

Take KWKLFKKIGIGKFLHSAKKF [compound 2023]: the Activity is reported as 0.

In the case of KWKLFKKIGPGKFLHSAKKF [satpdb18846], the Activity was 0. In the case of KWKLFKKIKFLHSAKKF [satpdb22653], the Activity is given as 0. For KWKLFKKIPHLAKKF [satpdb28955], the Activity is 0. Consider KWKLFKKIPKFLHL [satpdb16155], for which the Activity is listed as 0. With KWKLFKKIPKFLHSAKKF [satpdb25981], the Activity was 0. Consider KWKLFKKIPLAKKF [satpdb27289], for which the Activity was 0. For the substance KWKLKPLLKKLLKKL [satpdb10408], the Activity is 0. Take “KWKSFLKTFKSAKKKVLHTALKAISS [satpdb11775]”: the Activity is 1. As to “KWKSFLKTFKSLKKTVLHTLLKAISS [satpdb11586]”, the Activity was 1. Turning to “KWKSFLRTFKSPVRTVFHTALKPISS [satpdb15241]”, the Activity is listed as 1 and the “Activity (dataset HD1, hemolytic 1 / non-hemolytic 0)” value is reported as 1.

Take “KWKSFLkTFKSLKKTVLHTLLKAISS [satpdb10544]”: the Activity is on record as 1.

With KWKWKW [satpdb24601], the Activity is 0. On to KWLKKWL [satpdb27612], for which the Activity is given as 0. For the substance KWLRRVWRWWR [satpdb13727], the Activity was 1.

Regarding LKDVEEAQQKIINIIRRL [satpdb22186], the Activity was 0. For the substance LKKWLKKWLKK [satpdb15781], the Activity is 0. Turning to LKLFKKILKFL [satpdb12214], the Activity was 1. As for LKLFKKILKYL [satpdb12465], the Activity is given as 1.

LLKKLLKWLKK [satpdb11747]: the Activity is listed as 1.

On to LLLKLLKLLLKLLLKLLK [compound 3688], for which the Activity is on record as 1. As for LRQSQFVGSR [satpdb22092], the Activity is 0. With LRRLWLRANRL [satpdb19164], the Activity was 0 and the “Activity (dataset HD1, hemolytic 1 / non-hemolytic 0)” value was 0. In the case of LVRGCWTKSYPPKPCFVR [satpdb11737], the Activity was 1 and the “Activity (dataset HD1, hemolytic 1 / non-hemolytic 0)” value was 1.

On to “MAFKKLEKVGRNIRDGIIKAGPAVAVIGQATSIARPTGK [satpdb16695]”, for which the Activity is recorded as 0 and the “Activity (dataset HD1, hemolytic 1 / non-hemolytic 0)” value was 0. In the case of PKLKTFLSKWIG [satpdb28564], the Activity was 0 and the “Activity (dataset HD1, hemolytic 1 / non-hemolytic 0)” value is listed as 0. For the substance PKLLKFLSKWIG [satpdb11566], the Activity was 1 and the “Activity (dataset HD1, hemolytic 1 / non-hemolytic 0)” value is listed as 1. With PKLLKTFLKWIG [satpdb11234], the Activity was 1 and the “Activity (dataset HD1, hemolytic 1 / non-hemolytic 0)” value was 1.

With QADFQKVVAGVANALAHRYH [satpdb25830], the Activity is 0 and the “Activity (dataset HD1, hemolytic 1 / non-hemolytic 0)” value is 0.

With QKAVLDCLKAAGSSLSKAAITAI [satpdb19403], the Activity is 0 and the “Activity (dataset HD1, hemolytic 1 / non-hemolytic 0)” value is reported as 0. As for “QLQGKQVSGEVVQKVLQELIQSVAKP [satpdb28356]”, the Activity was 0 and the “Activity (dataset HD1, hemolytic 1 / non-hemolytic 0)” value is listed as 0. On to “QRSVSNAATRVSRTGRSRWRDVSRNFMRR [satpdb24123]”, for which the Activity is given as 0 and the “Activity (dataset HD1, hemolytic 1 / non-hemolytic 0)” value is on record as 0. As for QSRVIQGLVAGETAQQICED [satpdb27946], the Activity is listed as 0 and the “Activity (dataset HD1, hemolytic 1 / non-hemolytic 0)” value is recorded as 0. As for QTRRLTYKpRTVTYTRGR [satpdb13569], the Activity is 1. For the substance RAGLQFPVGRLLRRLLR [satpdb15223], the Activity is listed as 0 and the “Activity (dataset HD1, hemolytic 1 / non-hemolytic 0)” value is reported as 0. With RFGRFLRKIRRFRPK [satpdb23150], the Activity is 0 and the “Activity (dataset HD1, hemolytic 1 / non-hemolytic 0)” value is recorded as 0. Turning to RGGRLAYCRRRFCVAVGR [satpdb25189], the Activity is on record as 0.

As for “RGLRRLGRKIAHGVKKYGPTVKRIKRKA [satpdb15155]”, the Activity is on record as 0. On to RIIDLLWRVRRPQKPKFVTVWVR [satpdb14815], for which the Activity is 0 and the “Activity (dataset HD1, hemolytic 1 / non-hemolytic 0)” value was 0. RRGWALRLVLAY [satpdb14852]: the Activity is 1 and the “Activity (dataset HD1, hemolytic 1 / non-hemolytic 0)” value is 1. Turning to RRGWVLALYLRYGRR [satpdb15589], the Activity is on record as 1 and the “Activity (dataset HD1, hemolytic 1 / non-hemolytic 0)” value is 1. For RRLMAAKAESRK [satpdb23556], the Activity is 0 and the “Activity (dataset HD1, hemolytic 1 / non-hemolytic 0)” value is 0. On to RRRAAFAAWAAFAARRR [satpdb23563], for which the Activity is on record as 0. RWRSFFKKAAHRGKHVGKRARTHYL [satpdb15888]: the Activity is recorded as 0.

Take SFFKKAAHVGKHVGKAALTHYL [satpdb17678]: the Activity is 0. SFHVFPPWMCKSLKKC [satpdb22093]: the Activity is 0 and the “Activity (dataset HD1, hemolytic 1 / non-hemolytic 0)” value is given as 0. Regarding SFPFFPPGICKRLKRC [satpdb23345], the Activity is reported as 0 and the “Activity (dataset HD1, hemolytic 1 / non-hemolytic 0)” value is 0. As for SWSSFFKKAAHSGKHVGKSASTHYL [satpdb15741], the Activity was 0. As for TGRAKRRMQYNRR [satpdb25092], the Activity is 0 and the “Activity (dataset HD1, hemolytic 1 / non-hemolytic 0)” value is 0. For the substance VGKTWIKVIRGIGKSKIKWQ [satpdb28870], the Activity was 0 and the “Activity (dataset HD1, hemolytic 1 / non-hemolytic 0)” value is on record as 0. On to VIPFVASVAAEMMHHVYCAASKRC [satpdb16460], for which the Activity is 1 and the “Activity (dataset HD1, hemolytic 1 / non-hemolytic 0)” value is reported as 1. As for VLSAADKGNVKAAWGKVGGHAAE [satpdb26597], the Activity is reported as 0 and the “Activity (dataset HD1, hemolytic 1 / non-hemolytic 0)” value was 0.

Still in this data set, the particulars now being: hemolytic peptides dataset HD3; 1 = hemolytic (positive set), 0 = non-hemolytic (negative set); labels taken from databases; ref Hemolytik/SATPdb; cited from earlier work.
On to KKlFKKILkYL [satpdb19353], for which the Activity was 0. As for KLLLK [compound 3825], the Activity was 1. As to KNWKGIAGMAKKLLGKNWELMKK [satpdb11666], the Activity was 1. With KWKFKKIPKFLHLAKKF [satpdb23702], the Activity is 0. As to KWKLFKKIPKFLHLAK [satpdb17849], the Activity is 0.

With KWKLFKKIPKFLHLAKKF [compound 2405], the Activity was 0. Consider “KWKSFLKTFKSlKKTVLHTlLKAISS [satpdb12638]”, for which the Activity is recorded as 1.

In the case of “KWKSFLKTLKSPVKTVFYTALKPISS [satpdb14675]”, the Activity is listed as 1. As to “RWKIFKKIEKVGRNVRDGIIKAGPAVAVVGQAATVVKG [satpdb26767]”, the Activity is 0. As to VKLKVyPLKVKlyP [satpdb11392], the Activity is 1.

Still in this data set, the particulars now being: natural hemolytic peptide dataset HD1, label collected from databases; ref Hemolytik [49], SATPdb [34]; cited from earlier work.
For KNWKGIAGMAKKLLGKNWELMKK [satpdb11666], the “Activity (dataset HD1, hemolytic 1 / non-hemolytic 0)” value is given as 1.

For the substance “KWKSFLKTLKSPVKTVFYTALKPISS [satpdb14675]”, the “Activity (dataset HD1, hemolytic 1 / non-hemolytic 0)” value is given as 1.

In the case of “RWKIFKKIEKVGRNVRDGIIKAGPAVAVVGQAATVVKG [satpdb26767]”, the “Activity (dataset HD1, hemolytic 1 / non-hemolytic 0)” value was 0.
